Data on 25 compounds can be found in ChEMBL document CHEMBL4038345, “Design, Synthesis, and Biological Evaluation of Novel Selenium-Containing Isocombretastatins and Phenstatins as Antitumor Agents” (J Med Chem, 2017).

Data set [1] relates to MDA-MB-231. The data set is described as follows: Antiproliferative activity against human MDA-MB-231 cells after 48 hrs by MTT assay. Particulars: MDA-MB-231, 48 h.
Data set [2] deals with LoVo. As to the kind of experiment: Antiproliferative activity against human LoVo cells after 48 hrs by MTT assay. (Formazan colour is commonly taken as a measure of viable cells.)
In data set [3] the test system is RKO. The data set is described as follows: Antiproliferative activity against human RKO cells after 48 hrs by MTT assay.
In data set [4] the test system is A549. As to the kind of experiment: cells. Particulars: Homo sapiens, A549, 48 h.
For data set [5], the system named is HepG2. The data set is described as follows: cells. As to conditions: Homo sapiens, HepG2, 48 h.
In data set [6] the test system is MGC-803. As to the kind of experiment: Antiproliferative activity against human MGC803 cells after 48 hrs by MTT assay. As to conditions: MGC-803, 48 h.
For data set [7], the system named is A549/CDDP. As to the kind of experiment: Antiproliferative activity against human A549/CDDP cells after 48 hrs by MTT assay. The data set is classed as functional, cell-based.
Data set [8] in a line: Antiproliferative activity against human HepG2/DOX cells after 48 hrs by MTT assay. The class given is functional, cell-based.
Data set [9] can be described thus: Resistance index, ratio of IC50 for human A549/CDDP cells to IC50 for human A549 cells. The class given is functional.
A short description of data set [10]: Resistance index, ratio of IC50 for human HepG2/DOX cells to IC50 for human HepG2 cells. The class given is functional.
Data set [11] can be described thus: Metabolic stability in Sprague-Dawley rat liver microsomes assessed as compound remaining after 30 mins in presence of NADPH by UV-based HPLC-MS/MS analysis. The data set is classed as ADME, microsome. Particulars: read-out: Stability.
Data set [12] in a line: Metabolic stability in Sprague-Dawley rat liver microsomes assessed as compound remaining after 60 mins in presence of NADPH by UV-based HPLC-MS/MS analysis. The data set is classed as ADME, microsome. As to conditions: read-out: Stability. On the technique in general: Microsomes from liver hold many membrane-bound enzymes, among them those of drug oxidation.
Data set [13] in a line: Metabolic stability in Sprague-Dawley rat liver microsomes assessed as compound remaining after 90 mins in presence of NADPH by UV-based HPLC-MS/MS analysis. The class given is ADME, microsome. Particulars: read-out: Stability.
Data set [14] is described as follows: Metabolic stability in Sprague-Dawley rat liver microsomes assessed as compound remaining after 120 mins in presence of NADPH by UV-based HPLC-MS/MS analysis. The class given is ADME, microsome. Particulars: read-out: Stability.
Data set [15] in a line: (§1) Metabolic stability in Sprague-Dawley rat liver microsomes assessed as compound remaining after 150 mins in presence of NADPH by UV-based HPLC-MS/MS analysis. The class given is ADME, microsome. As to conditions: Sprague-Dawley, liver microsomes, read-out: Stability.
A short description of data set [16]: Half life in Sprague-Dawley rat by UV-based HPLC-MS/MS analysis. The class given is ADME. Particulars: in vivo.
A short description of data set [17]: Inhibition of porcine brain tubulin polymerization measured every 60 seconds for 90 mins by DAPI staining-based fluorescence assay. On the set-up: species or system Sus scrofa.
Data set [18] concerns A549. As to the kind of experiment: Induction of microtubule disruption in human A549 cells at 5 to 10 nM after 8 to 24 hrs by Hoechst 33342 staining-based laser scanning confocal immunofluorescence microscopic analysis. The data set is classed as cell-based.
The subject of data set [19] is MCF7. As to the kind of experiment: cells. As to conditions: Homo sapiens, MCF7, 48 h.
For data set [20], the system named is HeLa. The data set is described as follows: cells. Particulars: Homo sapiens, 48 h.
In data set [21] the test system is HCT-116. The data set is described as follows: cells. As to conditions: Homo sapiens, HCT-116, 48 h.
The test system of data set [22] is A2780. As to the kind of experiment: cells. As to conditions: Homo sapiens, A2780, 48 h.
Description: Antiproliferative activity against human A2780 cells after 48 hrs by MTT assay
Data set [23] has as its system A549. The data set is described as follows: Antitumor activity against human A549 cells xenografted in BALB/c nude mouse assessed as tumor growth inhibition at 30 mg/kg, ip. The data set is classed as functional. Particulars: read-out: TGI.
Data set [24] relates to Mus musculus. The data set is described as follows: Toxicity in BALB/c nude mouse xenografted with human A549 cells assessed as change in body weight at 30 mg/kg, ip. As to conditions: in vivo. The class given is organism-based. (In xenograft studies the graft and the host belong to different species.)
For data set [25], the system named is Liver. Described as §1. The class given is ADME, microsome. As to conditions: microsomes, 2.5 h.

A word on the IC50: it is the concentration that gives 50% inhibition. As a reminder, the half-life is how long it takes for the measured level to halve. The low end stands for rapid decline, the high end for slow decline.

Calls of active or inactive are those of the source. No cut-off for these calls is given here.

With `C=C(c1ccc(OC)c(Br)c1)c1cc(OC)c(OC)c([Se]C)c1`, the half-inhibitory concentration (IC50) in data set [1] was 667 nM; in data set [2] it was 171 nM; in data set [3], 343 nM; in [4], 236 nM; in [5], 691 nM.

With `C=C(c1ccc(OC)c(F)c1)c1cc(OC)c(OC)c([Se]C)c1`, the concentration for half-maximal inhibition (IC50) in data set [1] is 24 nM; in data set [2], 33 nM; in data set [3] it was 82 nM; in data set [4], 29 nM; in data set [5], 87 nM.

In the case of `C=C(c1ccc(OC)cc1)c1cc(OC)c(OC)c([Se]C)c1`, the half-maximal inhibitory concentration (IC50) in [1] turned out to be 96 nM; in data set [2], 91 nM; in [3] it was 107 nM; in data set [4], 72 nM; in [5] it was 126 nM.

`COc1ccc(C(=O)c2cc(OC)c(OC)c([Se]C)c2)cc1F`: the IC50 was found to be 34 nM in data set [1]; 57 nM in data set [2]; 59 nM in data set [3]; 33 nM in data set [4]; 47 nM in data set [5].

Regarding `COc1ccc(C(=O)c2cc(OC)c(OC)c([Se]C)c2)cc1Cl`, the 50% inhibitory concentration (IC50) is 865 nM in data set [1]; 189 nM in [2]; 253 nM in data set [3]; 949 nM in data set [4]; 1530 nM in data set [5].

As to `COc1ccc(C(=O)c2cc(OC)c(OC)c([Se]C)c2)cc1Br`, the IC50 in [1] is 435 nM; in data set [2] it was 1750 nM; in data set [3], 169 nM; in [4], 368 nM; in data set [5] it was 655 nM.

Take `COc1ccc(C(=O)c2cc(OC)c(OC)c([Se]C)c2)cc1C`: the 50% inhibitory concentration (IC50) in data set [1] was 997 nM; in [2] it was 3150 nM; in data set [3], 5280 nM; in data set [4], 1730 nM; in data set [5], 2300 nM.

With `C=C(c1ccc([Se]C)cc1)c1cc(OC)c(OC)c(OC)c1`, the half-inhibitory concentration (IC50) was determined as 178 nM in data set [1]; 279 nM in data set [2]; 216 nM in [3]; 97 nM in data set [4]; 386 nM in [5].

As to `C=C(c1ccc(OC)c(O)c1)c1cc(OC)c(OC)c(OC)c1`, the IC50 in data set [1] was 8.5 nM; in data set [2] it was 3.7 nM; in data set [3], 3.8 nM; in [6], 19.8 nM; in data set [7] it was 69.1 nM; in data set [8], 38.6 nM. The IC50 in [17] was found to be 2760 nM; in data set [4], 3.5 nM; in [5], 18.3 nM; in [19], 48 nM; in data set [20], 6 nM; in [21], 24 nM. This compound returned a half-inhibitory concentration (IC50) in data set [22] of 26 nM. In addition, the “Ratio IC50” value worked out at 19.7 in [9] and 2.1 in [10]. Moreover, the remaining at 0.5 h in [11] is 85.7%. Moreover, in [12], the remaining at 1 h is 77.1%. Further, the remaining at 1.5 h in data set [13] came out at 67.3%. In data set [14], the remaining at 2 h was 49.8%. The remaining at 2.5 h in [15] was 34.3%. Also, the half-life in data set [16] worked out at 1.7 h. Further, the result in data set [18] was Active.

For `COc1ccc(C(=O)c2cc(OC)c(OC)c(OC)c2)cc1O` [PHENSTATIN], the IC50 in data set [1] was found to be 62 nM; in [2] it was 122 nM; in data set [3], 72 nM; in [4], 179 nM; in data set [5], 108 nM.

For `C=C(c1ccc(OC)c(Cl)c1)c1cc(OC)c(OC)c([Se]C)c1`, the IC50 in [1] was 83 nM; in [2] it was 254 nM; in [3] it was 451 nM; in data set [4] it was 196 nM; in data set [5], 298 nM.

For the compound `C=C(c1ccc(OC)c(OP(=O)(O)O)c1)c1cc(OC)c(OC)c(OC)c1`, the inhibition in vivo at 30 mg/kg in [23] was found to be 52.2%.

As to `C=C(c1ccc(OC)c(OP(=O)([O-])[O-])c1)c1cc(OC)c(OC)c([Se]C)c1.[Na+].[Na+]`, the inhibition in vivo at 30 mg/kg in data set [23] stood at 72.9%. Further, the Activity entry in data set [24] is given as “Non-Toxic”.

Turning to `COc1cc(C(=O)c2cc(OC)c(OC)c([Se]C)c2)cc(OC)c1OC`, the 50% inhibitory concentration (IC50) in data set [1] came out at 741 nM; in data set [2] it was 921 nM; in [3] it was 235 nM; in data set [4] it was 172 nM; in data set [5] it was 288 nM.

As to `C=C(c1cc(OC)c(OC)c(OC)c1)c1cc(OC)c(OC)c([Se]C)c1`, the IC50 was found to be 3320 nM in [1]; 3140 nM in data set [2]; 3520 nM in [3]; 473 nM in [4]; 1350 nM in data set [5].

`COc1ccc(/C=C\c2cc(OC)c(OC)c(OC)c2)cc1OP(=O)(O)O` [FOSBRETABULIN DISODIUM]: in [23], the inhibition in vivo at 30 mg/kg turned out to be 47.6%.

Consider `C=C(c1ccc(OC)c(C)c1)c1cc(OC)c(OC)c([Se]C)c1`, for which the half-inhibitory concentration (IC50) in data set [1] was 599 nM; in [2], 496 nM; in data set [3], 245 nM; in [4], 141 nM; in data set [5] it was 607 nM.

Regarding `COc1ccc(C(=O)c2cc(OC)c(OC)c([Se]C)c2)cc1OC`, the half-maximal inhibitory concentration (IC50) in data set [1] was 1020 nM; in data set [2], 766 nM; in data set [3], 306 nM; in data set [4] it was 285 nM; in data set [5], 1090 nM.

As for `COc1ccc(C(=O)c2cc(OC)c(OC)c([Se]C)c2)cc1O`, the IC50 in [1] stood at 24 nM; in data set [2] it was 53 nM; in data set [3] it was 79 nM; in [4], 55 nM; in data set [5], 31 nM.

Take `C=C(c1ccc(OC)c(OC)c1)c1cc(OC)c(OC)c([Se]C)c1`: the IC50 in data set [1] is 344 nM; in data set [2], 299 nM; in data set [3] it was 216 nM; in data set [4], 265 nM; in [5], 473 nM.

`COc1cc(C(=O)c2ccc(OC)c(OC)c2OC)cc([Se]C)c1OC`: the IC50 turned out to be 4260 nM in data set [1]; 523 nM in data set [2]; 874 nM in data set [3]; 2750 nM in data set [4]; 4340 nM in [5].

Regarding `COc1ccc(/C=C\c2cc(OC)c(OC)c(OC)c2)cc1O` [COMBRETASTATIN A4], the remaining at 0.5 h in data set [11] amounted to 67.2%. The remaining at 1 h in data set [12] was determined as 26.4%. For the same compound, the remaining at 1.5 h in [13] was 22.5%. For the same compound, the remaining at 2 h in data set [14] was found to be 19.9%. Also, the Stability result in data set [25] was “Nd(Unstable)”.

`COc1cc(C(=O)c2ccc([Se]C)cc2)cc(OC)c1OC`: the IC50 in [1] stood at 65 nM; in data set [2] it was 296 nM; in [3] it was 66 nM; in data set [4], 69 nM; in data set [5], 77 nM.

Regarding `C=C(c1cc(OC)c(OC)c([Se]C)c1)c1ccc(OC)c(OC)c1OC`, the IC50 in [1] was found to be 3820 nM; in [2], 128 nM; in [3] it was 1040 nM; in data set [4], 1380 nM; in data set [5], 6300 nM.

Consider `COc1ccc(C(=O)c2cc(OC)c(OC)c([Se]C)c2)cc1`, for which the IC50 was 57 nM in data set [1]; 145 nM in data set [2]; 47 nM in [3]; 31 nM in data set [4]; 85 nM in data set [5].
